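Grown in 96-well plates, cells were treated for 48 hours with each compound at five concentrations. Insufficient inhibition: endpoint recorded as highest concentration tested. TGI marks complete inhibition of growth.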
What was measured:
Experiment in all cases: NCI-60 cell line screen, 48 h
PC-3 prostate = test system: PC-3 prostate
MDA-MB-435 = test system: MDA-MB-435
K-562 leukemia = test system: K-562 leukemia
A498 renal = test system: A498 renal
UACC-62 melanoma = test system: UACC-62 melanoma
KM12 colon = test system: KM12 colon
OVCAR-3 ovarian = test system: OVCAR-3 ovarian
OVCAR-4 ovarian = test system: OVCAR-4 ovarian
SK-MEL-2 melanoma = test system: SK-MEL-2 melanoma
TK-10 renal = test system: TK-10 renal
CCRF-CEM leukemia = test system: CCRF-CEM leukemia
M14 melanoma = test system: M14 melanoma
786-0 renal = test system: 786-0 renal
LOX IMVI melanoma = test system: LOX IMVI melanoma
OVCAR-5 ovarian = test system: OVCAR-5 ovarian
SK-OV-3 ovarian = test system: SK-OV-3 ovarian
SF-295 CNS = test system: SF-295 CNS

## O=c1c2c3c(sc2nc2n1sc1nc4sc5c(c4c(=O)n12)CCCC5)CCCC3
PC-3 prostate
  TGI: > 100 µM
MDA-MB-435
  TGI: > 100 µM
K-562 leukemia
  TGI: > 63.3 µM
A498 renal
  TGI: > 100 µM
UACC-62 melanoma
  TGI: > 100 µM
KM12 colon
  TGI: > 100 µM
OVCAR-3 ovarian
  TGI: > 62.5 µM
OVCAR-4 ovarian
  TGI: 37.2 µM
SK-MEL-2 melanoma
  TGI: > 100 µM
TK-10 renal
  TGI: > 100 µM
CCRF-CEM leukemia
  TGI: 60.7 µM
M14 melanoma
  TGI: > 100 µM
786-0 renal
  TGI: 31 µM
LOX IMVI melanoma
  TGI: > 100 µM
OVCAR-5 ovarian
  TGI: > 100 µM
SK-OV-3 ovarian
  TGI: > 100 µM
SF-295 CNS
  TGI: > 100 µM

## NC(=S)NN=Cc1ccccc1OCc1cccc(COc2ccccc2C=NNC(N)=S)n1
PC-3 prostate
  TGI: > 100 µM
MDA-MB-435
  TGI: > 100 µM
K-562 leukemia
  TGI: > 100 µM
A498 renal
  TGI: 47.7 µM
UACC-62 melanoma
  TGI: > 100 µM
KM12 colon
  TGI: > 100 µM
OVCAR-3 ovarian
  TGI: > 100 µM
OVCAR-4 ovarian
  TGI: > 100 µM
SK-MEL-2 melanoma
  TGI: 33.7 µM
TK-10 renal
  TGI: 32.3 µM
CCRF-CEM leukemia
  TGI: > 100 µM
M14 melanoma
  TGI: > 100 µM
786-0 renal
  TGI: > 72 µM
LOX IMVI melanoma
  TGI: > 100 µM
OVCAR-5 ovarian
  TGI: > 100 µM
SK-OV-3 ovarian
  TGI: 29.6 µM
SF-295 CNS
  TGI: 20 µM

## O=C(CNc1ccc([N+](=O)[O-])cc1)Nn1c(-c2ccccc2)nc2ccccc2c1=O
PC-3 prostate
  TGI: 13.2 µM
MDA-MB-435
  TGI: 14.6 µM
K-562 leukemia
  TGI: 5.52 µM
A498 renal
  TGI: 19.3 µM
UACC-62 melanoma
  TGI: 2.19 µM
KM12 colon
  TGI: 15.9 µM
OVCAR-3 ovarian
  TGI: 20.4 µM
OVCAR-4 ovarian
  TGI: 10.3 µM
SK-MEL-2 melanoma
  TGI: 8.37 µM
TK-10 renal
  TGI: 17 µM
CCRF-CEM leukemia
  TGI: > 21.6 µM
M14 melanoma
  TGI: 8.59 µM
786-0 renal
  TGI: 6.26 µM
LOX IMVI melanoma
  TGI: 2.23 µM
OVCAR-5 ovarian
  TGI: 16.3 µM
SK-OV-3 ovarian
  TGI: 14.9 µM
SF-295 CNS
  TGI: 29.8 µM

## C[Si](C)(C)CCOCN(C(=O)C1=CCC2(CC1)OCCO2)c1ccccc1I
PC-3 prostate
  TGI: 27 µM
MDA-MB-435
  TGI: 33.8 µM
K-562 leukemia
  TGI: > 100 µM
A498 renal
  TGI: 27.3 µM
UACC-62 melanoma
  TGI: 41.3 µM
KM12 colon
  TGI: 38.3 µM
OVCAR-3 ovarian
  TGI: 38.9 µM
OVCAR-4 ovarian
  TGI: 45.5 µM
SK-MEL-2 melanoma
  TGI: 32.6 µM
TK-10 renal
  TGI: 63.5 µM
CCRF-CEM leukemia
  TGI: 79.5 µM
M14 melanoma
  TGI: 39.5 µM
786-0 renal
  TGI: 39.8 µM
LOX IMVI melanoma
  TGI: > 100 µM
OVCAR-5 ovarian
  TGI: 41.9 µM
SK-OV-3 ovarian
  TGI: 33.4 µM
SF-295 CNS
  TGI: 32 µM

## O=[N+]([O-])c1ccc(C2Nn3c(nnc3-c3cccc([N+](=O)[O-])c3)S2)cc1 (stereo unspecified)
PC-3 prostate
  TGI: > 100 µM
MDA-MB-435
  TGI: > 100 µM
K-562 leukemia
  TGI: > 100 µM
A498 renal
  TGI: > 100 µM
UACC-62 melanoma
  TGI: > 100 µM
KM12 colon
  TGI: > 100 µM
OVCAR-3 ovarian
  TGI: > 100 µM
OVCAR-4 ovarian
  TGI: > 100 µM
SK-MEL-2 melanoma
  TGI: > 100 µM
TK-10 renal
  TGI: > 100 µM
CCRF-CEM leukemia
  TGI: > 100 µM
M14 melanoma
  TGI: > 100 µM
786-0 renal
  TGI: > 100 µM
LOX IMVI melanoma
  TGI: > 100 µM
OVCAR-5 ovarian
  TGI: > 100 µM
SK-OV-3 ovarian
  TGI: > 100 µM
SF-295 CNS
  TGI: > 100 µM

## CC(C)=NC(C(=O)O)C(C)(C)S (stereo unspecified)
PC-3 prostate
  TGI: > 100 µM
MDA-MB-435
  TGI: > 100 µM
K-562 leukemia
  TGI: > 100 µM
A498 renal
  TGI: > 100 µM
UACC-62 melanoma
  TGI: > 100 µM
KM12 colon
  TGI: > 100 µM
OVCAR-3 ovarian
  TGI: > 100 µM
OVCAR-4 ovarian
  TGI: > 100 µM
SK-MEL-2 melanoma
  TGI: > 100 µM
TK-10 renal
  TGI: > 100 µM
CCRF-CEM leukemia
  TGI: > 100 µM
M14 melanoma
  TGI: > 100 µM
786-0 renal
  TGI: > 100 µM
LOX IMVI melanoma
  TGI: > 100 µM
OVCAR-5 ovarian
  TGI: > 100 µM
SK-OV-3 ovarian
  TGI: > 100 µM
SF-295 CNS
  TGI: > 100 µM

## O=C(Cc1csc2[n+]1C(=O)/C(=C/c1ccc(Cl)cc1)S2)Nc1ccccc1
PC-3 prostate
  TGI: 41.3 µM
MDA-MB-435
  TGI: 95 µM
K-562 leukemia
  TGI: > 100 µM
A498 renal
  TGI: 40.1 µM
UACC-62 melanoma
  TGI: 32 µM
KM12 colon
  TGI: 82.8 µM
OVCAR-3 ovarian
  TGI: 27.7 µM
OVCAR-4 ovarian
  TGI: > 100 µM
SK-MEL-2 melanoma
  TGI: 37 µM
TK-10 renal
  TGI: 87.7 µM
CCRF-CEM leukemia
  TGI: > 100 µM
M14 melanoma
  TGI: > 100 µM
786-0 renal
  TGI: 90.9 µM
LOX IMVI melanoma
  TGI: 34.4 µM
OVCAR-5 ovarian
  TGI: 80.9 µM
SK-OV-3 ovarian
  TGI: 99.5 µM
SF-295 CNS
  TGI: > 100 µM

## COc1ccc(/C=N/NS(=O)(=O)c2ccc(/C=C3\NC(=O)NC3=O)cc2)cc1
PC-3 prostate
  TGI: > 100 µM
MDA-MB-435
  TGI: > 100 µM
K-562 leukemia
  TGI: > 100 µM
A498 renal
  TGI: > 100 µM
UACC-62 melanoma
  TGI: > 100 µM
KM12 colon
  TGI: > 100 µM
OVCAR-3 ovarian
  TGI: > 100 µM
OVCAR-4 ovarian
  TGI: > 100 µM
SK-MEL-2 melanoma
  TGI: > 100 µM
TK-10 renal
  TGI: > 100 µM
CCRF-CEM leukemia
  TGI: > 100 µM
M14 melanoma
  TGI: > 100 µM
786-0 renal
  TGI: > 100 µM
LOX IMVI melanoma
  TGI: > 100 µM
OVCAR-5 ovarian
  TGI: > 100 µM
SK-OV-3 ovarian
  TGI: > 100 µM
SF-295 CNS
  TGI: > 100 µM

## CC(=O)OC[C@@]1(C)[C@@H]2[C@@H]3[C@@]4(CO[C@]3(C)C(=O)[C@@]3(OC(C)=O)C[C@H](C)[C@H](OC(C)=O)[C@@H]3[C@H]4OC(C)=O)[C@H](OC(=O)c3ccccc3)C[C@@H]21
PC-3 prostate
  TGI: > 100 µM
MDA-MB-435
  TGI: > 100 µM
K-562 leukemia
  TGI: > 100 µM
A498 renal
  TGI: > 100 µM
UACC-62 melanoma
  TGI: > 100 µM
KM12 colon
  TGI: > 100 µM
OVCAR-3 ovarian
  TGI: > 100 µM
OVCAR-4 ovarian
  TGI: > 100 µM
SK-MEL-2 melanoma
  TGI: > 100 µM
TK-10 renal
  TGI: > 100 µM
CCRF-CEM leukemia
  TGI: > 100 µM
M14 melanoma
  TGI: > 100 µM
786-0 renal
  TGI: > 100 µM
LOX IMVI melanoma
  TGI: > 100 µM
OVCAR-5 ovarian
  TGI: > 100 µM
SK-OV-3 ovarian
  TGI: > 100 µM
SF-295 CNS
  TGI: > 100 µM

## CN(C)/C=N/c1cc(=O)n(C)c(=O)n1C
PC-3 prostate
  TGI: > 100 µM
MDA-MB-435
  TGI: > 100 µM
K-562 leukemia
  TGI: > 100 µM
A498 renal
  TGI: > 100 µM
UACC-62 melanoma
  TGI: > 100 µM
KM12 colon
  TGI: > 100 µM
OVCAR-3 ovarian
  TGI: > 100 µM
OVCAR-4 ovarian
  TGI: > 100 µM
SK-MEL-2 melanoma
  TGI: > 100 µM
TK-10 renal
  TGI: > 100 µM
CCRF-CEM leukemia
  TGI: > 100 µM
M14 melanoma
  TGI: > 100 µM
786-0 renal
  TGI: > 100 µM
LOX IMVI melanoma
  TGI: > 100 µM
OVCAR-5 ovarian
  TGI: > 100 µM
SK-OV-3 ovarian
  TGI: > 100 µM
SF-295 CNS
  TGI: > 100 µM

## O=C(NCCc1ccccn1)c1ccc2cc(C(=O)N3CC(CCl)c4ccc([N+](=O)[O-])cc43)[nH]c2c1 (stereo unspecified)
PC-3 prostate
  TGI: > 100 µM
MDA-MB-435
  TGI: > 100 µM
K-562 leukemia
  TGI: > 100 µM
A498 renal
  TGI: > 100 µM
UACC-62 melanoma
  TGI: > 67.4 µM
KM12 colon
  TGI: > 100 µM
OVCAR-3 ovarian
  TGI: 28.2 µM
OVCAR-4 ovarian
  TGI: 48.3 µM
SK-MEL-2 melanoma
  TGI: > 100 µM
TK-10 renal
  TGI: 66.7 µM
CCRF-CEM leukemia
  TGI: > 100 µM
M14 melanoma
  TGI: > 100 µM
786-0 renal
  TGI: > 63 µM
LOX IMVI melanoma
  TGI: > 100 µM
OVCAR-5 ovarian
  TGI: > 100 µM
SK-OV-3 ovarian
  TGI: 46 µM
SF-295 CNS
  TGI: > 68.5 µM

## S=c1[nH]nc(COc2ccc(Cl)cc2)n1-c1ccccc1
PC-3 prostate
  TGI: > 100 µM
MDA-MB-435
  TGI: > 100 µM
K-562 leukemia
  TGI: > 100 µM
A498 renal
  TGI: > 100 µM
UACC-62 melanoma
  TGI: > 100 µM
KM12 colon
  TGI: > 100 µM
OVCAR-3 ovarian
  TGI: > 100 µM
OVCAR-4 ovarian
  TGI: > 100 µM
SK-MEL-2 melanoma
  TGI: > 100 µM
TK-10 renal
  TGI: > 100 µM
CCRF-CEM leukemia
  TGI: > 100 µM
M14 melanoma
  TGI: > 100 µM
786-0 renal
  TGI: > 100 µM
LOX IMVI melanoma
  TGI: > 100 µM
OVCAR-5 ovarian
  TGI: > 100 µM
SK-OV-3 ovarian
  TGI: > 100 µM
SF-295 CNS
  TGI: > 100 µM

## O=C(O[C@H](/C=C/c1ccccc1)P1(=O)N(Cc2ccccc2)[C@H]2CCCC[C@@H]2N1Cc1ccccc1)c1ccccc1
PC-3 prostate
  TGI: > 100 µM
MDA-MB-435
  TGI: 46.2 µM
K-562 leukemia
  TGI: > 100 µM
A498 renal
  TGI: > 100 µM
UACC-62 melanoma
  TGI: > 100 µM
KM12 colon
  TGI: 18.1 µM
OVCAR-3 ovarian
  TGI: > 100 µM
OVCAR-4 ovarian
  TGI: 6.19 µM
SK-MEL-2 melanoma
  TGI: 6.19 µM
TK-10 renal
  TGI: > 100 µM
CCRF-CEM leukemia
  TGI: > 100 µM
M14 melanoma
  TGI: > 100 µM
786-0 renal
  TGI: > 100 µM
LOX IMVI melanoma
  TGI: 11.6 µM
OVCAR-5 ovarian
  TGI: > 100 µM
SK-OV-3 ovarian
  TGI: > 100 µM
SF-295 CNS
  TGI: > 100 µM

— PubChem BioAssay (NCI)
